Assay: safety assessments (adverse events, NCI CTCAE)
Conditions: AE resulting in dose interruption
Procedure: Adverse events were assessed continuously and graded according to NCI CTCAE v5.0.18. Complete blood count with differential, serum chemistries, and physical examinations were performed before the study; weekly during Cycles 1 and 2; on alternate weeks in Cycles 3 and 4; and monthly thereafter.

## Cc1ccc(C(=O)Nc2ccc(CN3CCN(C)CC3)c(C(F)(F)F)c2)cc1C#Cc1cnc2[nH]ncc2c1 [olverembatinib]
Accelerated phase n=38
  Acute myocardial infarction: 0 n (%)
  Anal abscess: 1 (2.6) n (%)
  Anemia: 5 (13.2) n (%)
  Atrial fibrillation: 1 (2.6) n (%)
  Atrial septal defect: 0 n (%)
  Chest pain: 0 n (%)
  Cholecystitis acute: 0 n (%)
  Cholelithiasis: 0 n (%)
  Febrile neutropenia: 0 n (%)
  Glaucoma: 0 n (%)
  Hematologic: 22 (57.9) n (%)
  Hemorrhoids: 0 n (%)
  Hepatocellular injury: 1 (2.6) n (%)
  Hyperbilirubinaemia: 0 n (%)
  Hyperglycaemia: 0 n (%)
  Hyperkalemia: 1 (2.6) n (%)
  Hypertriglyceridaemia: 1 (2.6) n (%)
  Hyperuricaemia: 0 n (%)
  Hypocalcemia: 0 n (%)
  Hypoesthesia: 0 n (%)
  Hypokalemia: 2 (5.3) n (%)
  Hyponatremia: 0 n (%)
  Increased alanine aminotransferase: 1 (2.6) n (%)
  Increased amylase: 0 n (%)
  Increased aspartate aminotransferase: 1 (2.6) n (%)
  Increased creatine phosphokinase: 1 (2.6) n (%)
  Increased pulmonary arterial pressure: 0 n (%)
  Increased γ-glutamyl transferase: 0 n (%)
  Influenza like illness: 0 n (%)
  Iridocyclitis: 1 (2.6) n (%)
  Lacunar infarction: 0 n (%)
  Leukopenia: 5 (13.2) n (%)
  Liver disorder: 0 n (%)
  Musculoskeletal pain: 1 (2.6) n (%)
  Myocardial strain: 0 n (%)
  Neutropenia: 4 (10.5) n (%)
  Nonhematologic: 14 (36.8) n (%)
  Pain: 0 n (%)
  Pain in extremity: 0 n (%)
  Peripheral swelling: 0 n (%)
  Pneumonia: 0 n (%)
  Proteinuria: 0 n (%)
  Pulmonary arterial hypertension: 0 n (%)
  Pulmonary tuberculosis: 1 (2.6) n (%)
  Pyrexia: 2 (5.3) n (%)
  Rash: 1 (2.6) n (%)
  Refraction disorder: 0 n (%)
  Sinus bradycardia: 0 n (%)
  Sinus tachycardia: 1 (2.6) n (%)
  Skin mass: 0 n (%)
  Superior mesenteric artery syndrome: 0 n (%)
  Supraventricular extrasystoles: 1 (2.6) n (%)
  Swelling: 0 n (%)
  Thrombocytopenia: 17 (44.7) n (%)
  Upper-respiratory-tract infection: 1 (2.6) n (%)
  Urinary sediment present: 0 n (%)
Chronic phase n=127
  Acute myocardial infarction: 1 (0.8) n (%)
  Anal abscess: 0 n (%)
  Anemia: 3 (2.4) n (%)
  Atrial fibrillation: 1 (0.8) n (%)
  Atrial septal defect: 1 (0.8) n (%)
  Chest pain: 1 (0.8) n (%)
  Cholecystitis acute: 1 (0.8) n (%)
  Cholelithiasis: 1 (0.8) n (%)
  Febrile neutropenia: 1 (0.8) n (%)
  Glaucoma: 1 (0.8) n (%)
  Hematologic: 44 (34.6) n (%)
  Hemorrhoids: 1 (0.8) n (%)
  Hepatocellular injury: 0 n (%)
  Hyperbilirubinaemia: 2 (1.6) n (%)
  Hyperglycaemia: 1 (0.8) n (%)
  Hyperkalemia: 0 n (%)
  Hypertriglyceridaemia: 3 (2.4) n (%)
  Hyperuricaemia: 1 (0.8) n (%)
  Hypocalcemia: 3 (2.4) n (%)
  Hypoesthesia: 1 (0.8) n (%)
  Hypokalemia: 0 n (%)
  Hyponatremia: 1 (0.8) n (%)
  Increased alanine aminotransferase: 3 (2.4) n (%)
  Increased amylase: 1 (0.8) n (%)
  Increased aspartate aminotransferase: 2 (1.6) n (%)
  Increased creatine phosphokinase: 3 (2.4) n (%)
  Increased pulmonary arterial pressure: 1 (0.8) n (%)
  Increased γ-glutamyl transferase: 1 (0.8) n (%)
  Influenza like illness: 1 (0.8) n (%)
  Iridocyclitis: 0 n (%)
  Lacunar infarction: 1 (0.8) n (%)
  Leukopenia: 4 (3.1) n (%)
  Liver disorder: 1 (0.8) n (%)
  Musculoskeletal pain: 0 n (%)
  Myocardial strain: 1 (0.8) n (%)
  Neutropenia: 1 (0.8) n (%)
  Nonhematologic: 34 (26.8) n (%)
  Pain: 1 (0.8) n (%)
  Pain in extremity: 1 (0.8) n (%)
  Pericardial effusion: 0 n (%)
  Peripheral swelling: 1 (0.8) n (%)
  Pneumonia: 2 (1.6) n (%)
  Proteinuria: 1 (0.8) n (%)
  Pulmonary arterial hypertension: 1 (0.8) n (%)
  Pulmonary tuberculosis: 0 n (%)
  Pyrexia: 1 (0.8) n (%)
  Rash: 0 n (%)
  Refraction disorder: 1 (0.8) n (%)
  Sinus bradycardia: 1 (0.8) n (%)
  Sinus tachycardia: 1 (0.8) n (%)
  Skin mass: 1 (0.8) n (%)
  Superior mesenteric artery syndrome: 1 (0.8) n (%)
  Supraventricular extrasystoles: 0 n (%)
  Swelling: 1 (0.8) n (%)
  Thrombocytopenia: 42 (33.1) n (%)
  Upper-respiratory-tract infection: 1 (0.8) n (%)
  Urinary sediment present: 1 (0.8) n (%)
Total n=165
  Acute myocardial infarction: 1 (0.6) n (%)
  Anal abscess: 1 (0.6) n (%)
  Anemia: 8 (4.8) n (%)
  Atrial fibrillation: 2 (1.2) n (%)
  Atrial septal defect: 1 (0.6) n (%)
  Chest pain: 1 (0.6) n (%)
  Cholecystitis acute: 1 (0.6) n (%)
  Cholelithiasis: 1 (0.6) n (%)
  Febrile neutropenia: 1 (0.6) n (%)
  Glaucoma: 1 (0.6) n (%)
  Hematologic: 66 (40.0) n (%)
  Hemorrhoids: 1 (0.6) n (%)
  Hepatocellular injury: 1 (0.6) n (%)
  Hyperbilirubinaemia: 2 (1.2) n (%)
  Hyperglycaemia: 1 (0.6) n (%)
  Hyperkalemia: 1 (0.6) n (%)
  Hypertriglyceridaemia: 4 (2.4) n (%)
  Hyperuricaemia: 1 (0.6) n (%)
  Hypocalcemia: 3 (1.8) n (%)
  Hypoesthesia: 1 (0.6) n (%)
  Hypokalemia: 2 (1.2) n (%)
  Hyponatremia: 1 (0.6) n (%)
  Increased alanine aminotransferase: 4 (2.4) n (%)
  Increased amylase: 1 (0.6) n (%)
  Increased aspartate aminotransferase: 3 (1.8) n (%)
  Increased creatine phosphokinase: 4 (2.4) n (%)
  Increased pulmonary arterial pressure: 1 (0.6) n (%)
  Increased γ-glutamyl transferase: 1 (0.6) n (%)
  Influenza like illness: 1 (0.6) n (%)
  Iridocyclitis: 1 (0.6) n (%)
  Lacunar infarction: 1 (0.6) n (%)
  Leukopenia: 9 (5.5) n (%)
  Liver disorder: 1 (0.6) n (%)

— article PMC9389804 (Journal of Hematology & Oncology, 2022)
